Experiments:
[1] = tested on: lymphoma U937 cells; assay: Cell morphology, Hoechst 33258 staining, fluorescence microscope; type: cell-based; conditions: lymphoma U937 cells, 10, 100 and 250 μmol/L, 24-hour culture
Procedure: (§1) Lymphoma U937 cells, human melanoma A875 cells and leukemia cells K562 in logarithmic growth phase were selected, and the concentrations of the cells were adjusted to 1×10^4 cells/mL, and the cells were transferred to a 6-well plate for culture, and after the 24-hour culture, drugs were added to achieve final concentrations of 0, 10, 100 and 250 μmol/L, wherein only whole medium was added to the negative control groups, while Mogroside II A2 was added to the positive control groups, after 24-hour culture, waste solution was removed, and fixing solution was added to each well for fixing for 25 min, and then the resulting mixture was washed twice, 3 min each time, and then Hoechst 33258 staining solution was added for staining in dark at room temperature for 30 min, and the cell morphology variation was observed using a fluorescence microscope.

[2] = tested on: human melanoma A875 cells; assay: as above; type: cell-based; conditions: A875 melanoma cells, 10, 100 and 250 μmol/L, 24-hour culture
Procedure: as §1

[3] = tested on: lymphoma U937 cells; assay: Cell apoptosis, Annexin V-FITC/PI, flow cytometer; type: cell-based; conditions: 10 μmol/L, 24 h
Procedure: Lymphoma U937 cells, human melanoma A875 cells and leukemia cells K562 in logarithmic growth phase were selected, and after the respective culture with 0 and 10 μmol/L of the mogrosides and analogs thereof (i.e. Mogroside I E1, Mogroside II A2 and mogrol) for 24 h, cells were collected and washed twice with 200 μl of cold PBS, and then the cells were collected again; 100 μl of binding buffer was added for re-suspending the cells, and after the addition of 2 μl of Annexin V-FITC and well mixing, the resulting mixture was placed in dark at room temperature for 10 min, and then 5 μl of propidium iodide (PI) was added and then well mixed; the mixture was placed in dark at room temperature for 10 min, and detected by flow cytometer, and the results are shown in FIGS. 13-15.

[4] = tested on: anti-apoptotic protein Bcl-2; assay: Western Blotting of Bcl-2 in U937 cells; type: cell-based; conditions: 10 μmol/L, 24 h
Procedure: The STAT3 and ERK signal pathways can regulate cyclins and apoptosis genes, and in order to verify the effects of […] and mogrol, the expression status of downstream genes of STAT3 and ERK was detected, wherein the influences of the three mogrosides and analogs thereof, i.e. Mogrol I E1, Mogrol II A2 and mogrol, on Bcl-2 and P21 proteins in the histiocytic lymphoma U937 cells, human melanoma A875 cells and leukemia cells K562 were determined, respectively.
The regulation of Bcl-2 and P21 proteins by mogrosides and analog thereof to the was detected by Western Blotting, specifically: histiocytic lymphoma U937 cells, human melanoma A875 cells and leukemia cells K562 (1×10^6 cells/well) were inoculated into a 6-well culture plate overnight, and 0 and 10 μmol/L of the mogrosides and analogs thereof were added respectively, and kept cultured for 24 h. […]
The protein concentration was measured with bovine serum albumin (BSA) as the standard. 50 μg of the total proteins were separated by polyacrylamide gel electrophoresis with 12% SDS, and electrophoretically transferred to a PVDF membrane (polyvinylidene fluoride membrane), and blocked for 1 h by 5% of skim milk (containing 0.1% of Tween 20), and then antibodies P21, Bcl-2 and β-actin were added, wherein the primary antibody was incubated at 4° C. overnight (β-actin was used as reference loading amount); the membrane was washed for 3 times with TBS-T, 5 min each time; secondary antibody marked by horseradish peroxidase (HRP) was added for incubation at room temperature for 1 h, the membrane was washed with rinse solution (TBS-T) for 3 times, 10 min each time, and then ECL was added for incubation in dark for 5 min, and subsequently, a fluorescence imaging analyzer was used for image development and scanning analysis.

[5] = tested on: phosphorylated STAT3 (P-STAT3, Tyr705); assay: Western Blotting of phosphorylated STAT3 in A875 cells; type: cell-based, human; conditions: melanoma A875 cells, 10 μmol/L, 24 hours
Procedure: The inhibition of the STAT3 and ERK signal pathways achieved by Mogroside I E1, Mogroside II A2 and mogrol was detected by Western Blotting, specifically:
Group 2: human melanoma A875 cells (1×10^6 cells/well) were inoculated into a 6-well culture plate for staying overnight, and 0 and 10 μmol/L of Mogroside I E1, Mogroside II A2 and mogrol were added respectively, and the culture was continued for 24 hours;
After the termination of the cell culture, the culture solution was removed, and the residue was washed with PBS (0.01 mol/L, pH 7.4), and then a cell lysis solution containing protease inhibitors was added at an amount of 50 μl/well, and the mixture was placed in an ice bath for lysis at 4° C. for 30 min and then centrifuged at 14000 r/min for 10 min, and then total proteins were obtained from the supernatant;
The protein concentrations were measured with bovine serum albumin (BSA) as the standard. 50 μg of the total proteins was separated by polyacrylamide gel electrophoresis with 12% […], electrophoretically transferred to a PVDF membrane (polyvinylidene fluoride membrane), and blocked for 1 h by 5% of skim milk (containing 0.1% of Tween 20), and then antibodies p-STAT3 (Tyr705) and p-Erk1/2 as well as β-actin were added, and the primary antibody was incubated at 4° C. overnight (β-actin was used as reference in loading amount); the membrane was washed for 3 times with TBS-T, 5 min each time; secondary antibody marked by horseradish peroxidase (HRP) was added for incubation at room temperature for 1 h, the membrane was washed for 3 times with a wash solution (TBS-T), 10 min each time, and then ECL was added for incubation in dark for 5 min, and subsequently, a fluorescence imaging analyzer was used for image development and scanning analysis, and the results of Western Blotting detection are shown in FIGS. 4 to 6.

[6] = tested on: histiocytic lymphoma U937 cells; assay: Cell cycle distribution, PI staining, flow cytometer; type: cell-based; conditions: 24 h
Text: The influences of Mogroside I E1, Mogroside II A2 and mogrol on the cell cycle distribution of the histiocytic lymphoma U937 cells, the human melanoma A875 cells and the leukemia cells K562.
The cell cycle arrest achieved by drugs is an important approach to the inhibition of cancer cell proliferation.

[7] = tested on: leukemia cells K562; assay: MTT colorimetric experiment, cell growth inhibition; type: cell-based, human; conditions: leukemia cells K562, 0.1, 1, 10, 100, 200 and 250 μmol/L, MTT after 24 h
Procedure: MTT colorimetric experiments were performed after 24 h, respectively: prior to the finish of each experiment, 15 μl of MTT solution in a concentration of 5 mg/ml was added to each well, and the culture was continued in dark at 37° C. for 4 h, then 150 μl of DMSO was added to each well and oscillating in a shaker for 10 min, and then the residue was placed in a microplate reader to detect the optical density OD) at 490 nm, and the inhibition rate was calculated according to the following formula: cell growth inhibition rate (control group OD490—test group OD490)/control group OD490×100%.

## C[C@H](CC[C@@H](O)C(C)(C)O)[C@H]1CC[C@@]2(C)[C@@H]3CC=C4[C@@H](CC[C@H](O)C4(C)C)[C@]3(C)[C@H](O)C[C@]12C [mogrol]
[1]
  cell morphology variation (Hoechst 33258): identical to the results of Mogroside II A2
[2]
  cell morphology variation (Hoechst 33258): identical to the results of Mogroside II A2
[3]
  cell apoptosis: induce the apoptosis
[4]
  expression of anti-apoptotic protein Bcl-2: significantly down-regulated
[5]
  expression level of phosphorylated STAT3 (P-STAT3): significantly decreased
[6]; U937 cells, 0, 1, 10, 150 and 250 μmol/L
  proportion of cells in G0/G1 phase with the rise of the concentration: gradually increased
[6]; U937 cells, 10 μmol/L
  cell cycle distribution (proportion of cells of G0/G1 phase): G0/G1 arrest
[7]
  cell growth inhibition rate: inhibitory effect on the proliferation
